US20160129089A1, “COMBINATION THERAPY” (ANTISENSE THERAPEUTICS LTD, priority 2013, published 2016)
“Also recorded” adds a separate entry of the source. Read-outs that look alike come from different tables or passages of the source. Marks after values point to notes of the source that are not given here.

Experiments:
[1] = system: human growth hormone receptor mRNA; assay: Inhibition of human growth hormone receptor mRNA levels by antisense oligonucleotides, quantitative real-time PCR, MCF7 cells; type: cell-based; design: concentration or dose not given beside the values; conditions: averages from three experiments
[2] = system: IGF-I; assay: Phase I trial: pharmacodynamic effect on serum IGF-I levels; type: in vivo, human; conditions: for Serum IGF-I change from pre-dose, Mean ± SD / Serum IGF-I % change from pre-dose: n=6
Source text: A secondary objective of this study was to obtain data on the pharmacodynamic effects of ATL1103 on the IGF-I levels in the blood of the trial subjects. Reduction of increased levels of serum IGF-I to normal is the therapeutic endpoint in the treatment of the growth disorder acromegaly, and reducing the effects of IGF-I has a potential role in the treatment of diabetic retinopathy, nephropathy and certain forms of cancer.
(§1) As defined in the statistical analysis plan, the effect of ATL1103 on serum IGF-I was assessed as a change in IGF-I levels versus baseline (starting point) readings for those subjects who received treatment (ATL1103). Pre-dose baseline levels of IGF-I were recorded prior to the commencement of dosing and then measured at weekly intervals until the end of the monitoring period. […] Other exploratory objectives of the study investigated the drug's mechanism of action and broader pharmacological profile, including the pharmacodynamic effects on levels of growth hormone binding protein (GHBP), insulin-like growth factor binding protein 3 (IGFBP-3), acid labile subunit of the insulin-like growth factor binding protein complex (ALS), and growth hormone (GH), as well as in vitro mitogenic and apoptotic parameters.

[3] = system: growth hormone binding protein (GHBP); assay: Phase I trial: exploratory PD, circulating GHBP; type: in vivo, human; conditions: for GHBP % change from pre-dose / GHBP mean change from pre-dose: Stage B, n=6
Protocol: as §1

[4] = system: insulin-like growth factor binding protein 3 (IGF-BP3); assay: Phase I trial: exploratory PD, IGF-BP3; type: in vivo, human; conditions: for IGF-BP3 % change from pre-dose / IGF-BP3 mean change from pre-dose: Stage B, n=6
Protocol: as §1

[5] = system: insulin-like growth factor II (IGF-II); assay: Phase I trial: exploratory PD, IGF-II; type: in vivo, human; conditions: Stage B, n=6
[6] = system: insulin-like growth factor acid-labile subunit (ALS); assay: Phase I trial: exploratory PD, ALS; type: in vivo, human; conditions: for ALS % change from pre-dose / ALS mean change from pre-dose: Stage B, n=6
Protocol: as §1

[7] = system: growth hormone (GH); assay: Phase I trial: exploratory PD, growth hormone levels; type: in vivo, human; conditions: listed as ATL1103
Protocol: as §1

[8] = system: liver GHr RNA; assay: Monotherapy and combination mouse study: relative liver GHR RNA; type: in vivo, mice; conditions: week 3, p=0.001
Source text: (§2) The GHr and IGF-I RNA data were statistically analysed using one-way ANOVA followed by Dunnetts test when comparing treated to saline control. The sIGF-I data were statistically analyzed using one-way […] comparisons.

[9] = system: liver IGF-I RNA; assay: Monotherapy and combination mouse study: relative liver IGF-I RNA; type: in vivo, mice; conditions: week 3, p=0.001
Source text: as §2

[10] = system: serum IGF-I; assay: Monotherapy and combination mouse study: serum IGF-I; type: in vivo, mice
Source text: as §2

[11] = system: serum insulin like growth factor I (IGF-I); assay: Phase II trial in patients with acromegaly: serum IGF-I reduction; type: in vivo, human
Source text: The primary endpoints or main purposes of the trial were (i) to evaluate the safety and tolerability of ATL1103 in patients with acromegaly, and (ii) to evaluate the single dose and multiple dose pharmacokinetic profiles of ATL1103 via the subcutaneous route in patients with acromegaly.

[12] = human, in vivo
Protocol: (§3) The primary objective of the Phase I trial was to assess the safety, tolerability and pharmacokinetics (pK) of ATL1103.
(§4) The Phase I trial was a randomized, placebo controlled, double blind study of single ascending doses and multiple doses of ATL1103 in healthy adult male subjects aged between 18 and 45 years. In the single ascending dose stage of the trial, 24 subjects were administered four dose levels of ATL1103 as a single injection starting at 25 mg and escalating to 75, 250 and 400 mg or placebo. The multiple dose stage was undertaken in 12 subjects, 8 who were to receive six subcutaneous doses of 250 mg of ATL1103 and 4 subjects who received placebo administered on days 1, 3, 5, 7, 14 and 21. Subjects were monitored out to day 35.

[13] = human, in vivo, sc
Source text: The Phase I trial was a randomized, placebo controlled, double blind study of single ascending doses and multiple doses of ATL1103 in healthy adult male subjects aged between 18 and 45 years. […] Subjects were monitored out to day 35.

[14] = Phase I trial: safety and tolerability of subcutaneous ATL1103 in healthy adult male subjects
Protocol: as §3, §4

[15] = ATL1103 12 mg/kg, 3 times in first week then 2 times weekly
[16] = ATL1103 25 mg/kg, 2 times weekly, compared to saline control

## tcagggcattctttccattc (TCAGGGCATTCTTTCCATTC; chemistry not given here) [ISIS 227452]
[1]
  % INHIB (inhibitory effect on hGHR mRNA levels): 79%
[2]; Stage B, 250 mg multiple dose, Day 3
  Serum IGF-I change from pre-dose, Mean ± SD: +2.65 ± 9.47 nmol/L
[2]; Stage B, from day 14 on, listed as ATL1103
  trend of serum IGF-I levels versus baseline: trend in reduction in IGF-I levels from day 14 to day 28; also recorded: For IGF-I there was a clear trend for mean levels to be lower than baseline on days D14, 21, 28, 35 of
[2]; Stage B, Day 3
  Serum IGF-I % change from pre-dose: 12%
[2]; Stage B, Day 5
  Serum IGF-I % change from pre-dose: 6%
  Serum IGF-I change from pre-dose, Mean ± SD: +0.32 ± 7.42 nmol/L
[2]; Stage B, Day 7
  Serum IGF-I % change from pre-dose: 6%
  Serum IGF-I change from pre-dose, Mean ± SD: +0.77 ± 7.51 nmol/L
[2]; Stage B, Day 14
  Serum IGF-I % change from pre-dose: −2%
  Serum IGF-I change from pre-dose, Mean ± SD: -1.43 ± 7.19 nmol/L
[2]; Stage B, Day 21
  Serum IGF-I % change from pre-dose: −7%
  Serum IGF-I change from pre-dose, Mean ± SD: -3.40 ± 3.59 nmol/L
[2]; Stage B, Day 28
  Serum IGF-I % change from pre-dose: −7%
  Serum IGF-I change from pre-dose, Mean ± SD: -3.43 ± 7.53 nmol/L
[2]; Stage B, Day 35
  Serum IGF-I % change from pre-dose: −1%
  Serum IGF-I change from pre-dose, Mean ± SD: -1.9 ± 5.08 nmol/L
[2]; day 21, p=0.034 one sided t-test
  reduction in mean IGF-I levels versus baseline: 7%
[3]; Day 7
  GHBP % change from pre-dose: (0%)
  GHBP mean change from pre-dose: -31.2 pmol/L
[3]; Day 21
  GHBP % change from pre-dose: (−16%)
  GHBP mean change from pre-dose: −169.5** pmol/L
[3]; Day 28
  GHBP % change from pre-dose: (−19%)
  GHBP mean change from pre-dose: −233.3* pmol/L
[3]; day 21, p=0.007
  reduction of GHBP: 16%
[3]; day 28, one week past the last dose, p<0.05
  reduction of GHBP: 19%
[4]; Phase I multiple dose stage
  effect on IGFBP-3: significantly reduced
[4]; Day 7
  IGF-BP3 % change from pre-dose: (−10%)
  IGF-BP3 mean change from pre-dose: −310.5** ng/ml
[4]; Day 21
  IGF-BP3 % change from pre-dose: (−8%)
  IGF-BP3 mean change from pre-dose: −228.3* ng/ml
[4]; Day 28
  IGF-BP3 % change from pre-dose: (−5%)
  IGF-BP3 mean change from pre-dose: -160.5 ng/mL
[5]; Day 7
  IGF-II % change from pre-dose: (−14%)
  IGF-II mean change from pre-dose: −101.8*** ng/ml
[5]; Day 21
  IGF-II % change from pre-dose: (−8%)
  IGF-II mean change from pre-dose: -57.5 ng/mL
[5]; Day 28
  IGF-II % change from pre-dose: (−5%)
  IGF-II mean change from pre-dose: -29.2 ng/mL
[6]; Phase I multiple dose stage
  effect on ALS: significantly reduced
[6]; Day 7
  ALS % change from pre-dose: (−5%)
  ALS mean change from pre-dose: −115.3 mU/ml
[6]; Day 21
  ALS % change from pre-dose: (−9%)
  ALS mean change from pre-dose: −160.7 mU/ml
[6]; Day 28
  ALS % change from pre-dose: (−10%)
  ALS mean change from pre-dose: −188.7* mU/ml
[7]
  effect on GH levels: no effect; also recorded: No treatment-related effects were apparent in growth hormone levels (data not shown)
[8]; [15]
  reduction of liver GHr RNA: 99%
[8]; [16]
  reduction of liver GHr RNA: 99.7%
[9]; [15]
  reduction of liver IGF-I RNA: 64.3%
[9]; [16]
  reduction of liver IGF-I RNA: 76.2%
[10]; ATL1103 25 mg/kg 2 times weekly monotherapy, week 1, compared to baseline control levels, p<0.013
  reduction of sIGF-I: 25%
[10]; ATL1103 25 mg/kg, 2 times weekly, week 1, compared to control saline, p=0.0070
  reduction of sIGF-I: 36.5%
[10]; ATL1103 25 mg/kg, 2 times weekly, week 2, compared to control saline, p=0.004
  reduction of sIGF-I: 41.5%
[10]; ATL1103 25 mg/kg, 2 times weekly, week 3, compared to saline control, p=0.003
  reduction of serum IGF-I: 44.5%
[11]; 200 mg per week dose, week 14
  reduction in mean sIGF-I levels: no consistent reduction
[11]; 400 mg per week (twice weekly 200 mg), 4 patients with acromegaly, week 14
  mean reduction in sIGF-I compared to baseline: 30%
[11]; 400 mg per week, 3 patients with lower body weights (58-83 kg, below 85 kg), approx. 4.8-6.9 mg/kg, week 14
  mean reduction in sIGF-I compared to baseline: 38%
[11]; 400 mg per week, 3 patients with lower body weights, week 14
  range of sIGF-I reduction: 28-48%
[11]; twice weekly 200 mg (400 mg per week), over the dosing period
  time course of sIGF-I (FIG. 1): progressive rate of reduction
[12]
  injection site reactions, number of events: adverse events were injection site reactions (13).
  number of treatment-emergent adverse events (TEAE): There were 24 treatment-emergent adverse events (TEAE) in Stage A (19 in the 16 ATL1103-treated
  overall safety and tolerability: ATL1103 was considered safe and generally well tolerated at the doses used in the study
  pain at injection site, number of events: treated subjects most common adverse events reported were pain at injection site (6), headache
  severity of TEAE: subjects, 5 in the 8 placebo-treated subjects), all reported as mild or moderate. In the ATL1103-
  severity of all adverse events: mild to moderate
[13]; 25 mg
  AUClast: 3711 ± 822 ng·h/mL
  Cmax: 466 ± 136 ng/mL
  Tmax: 3.25 ± 0.5 h
[13]; 75 mg
  AUClast: 21342 ± 4755 ng·h/mL
  Cmax: 3139 ± 1576 ng/mL
  Tmax: 3.25 ± 0.96 h
[13]; 250 mg
  AUClast: 88942 ± 11295 ng·h/mL
  Cmax: 12383 ± 3000 ng/mL
  Tmax: 2.5 ± 1.29 h
[13]; 400 mg
  AUClast: 151123 ± 29434 ng·h/mL
  Cmax: 14343 ± 2823 ng/mL
  Tmax: 3.25 ± 0.96 h
[14]; Stage A, ATL1103-treated subjects
  headache, number of events: 5
[14]; Stage A, ATL1103-treated subjects (after single doses of 400 mg)
  influenza-like illness, number of events: 2
[14]; after repeated doses of 250 mg
  influenza-like illness: single doses of 400 mg ATL1103, this was not seen after repeated doses of 250 mg.
